# Results from patent publication US20260265195A1, “SARM1 MODULATORS, PREPARATIONS, AND USES THEREOF” (SIRONAX LTD, priority 2022, published 2026).
# Target: T1, SARM1 (50-724) (Homo sapiens, UniProt Q6SZW1)
# T1 construct: Purified SARM1 (50-724) with a final concentration of 2 nM
# T1 sequence (Q6SZW1 50-724): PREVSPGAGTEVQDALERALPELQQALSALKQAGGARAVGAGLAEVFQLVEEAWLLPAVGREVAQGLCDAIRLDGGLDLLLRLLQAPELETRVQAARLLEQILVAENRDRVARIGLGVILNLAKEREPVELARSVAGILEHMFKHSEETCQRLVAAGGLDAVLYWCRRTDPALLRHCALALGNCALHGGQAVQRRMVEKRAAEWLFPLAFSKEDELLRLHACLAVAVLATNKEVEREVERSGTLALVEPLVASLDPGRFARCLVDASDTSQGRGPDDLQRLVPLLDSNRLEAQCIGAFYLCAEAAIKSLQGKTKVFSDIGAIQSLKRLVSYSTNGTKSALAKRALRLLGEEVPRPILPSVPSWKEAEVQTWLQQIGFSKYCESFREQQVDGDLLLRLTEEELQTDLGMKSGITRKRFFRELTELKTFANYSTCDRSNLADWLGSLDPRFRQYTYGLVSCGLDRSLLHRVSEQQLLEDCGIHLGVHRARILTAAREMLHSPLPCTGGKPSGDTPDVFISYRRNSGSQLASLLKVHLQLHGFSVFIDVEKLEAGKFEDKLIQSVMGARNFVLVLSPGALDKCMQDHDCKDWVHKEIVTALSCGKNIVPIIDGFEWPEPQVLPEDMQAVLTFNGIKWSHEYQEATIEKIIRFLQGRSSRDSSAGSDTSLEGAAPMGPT
# Assay: SARM1 (50-724) enzymatic assay (NMN-activated NAD+ hydrolysis, LC-MS/MS readout)
# Type: biochemical
# Details: purified SARM1 (50-724) 2 nM, 200 μM NMN activator, 100 μM NAD+ substrate, 1 h at room temperature, read-out: IC50 (SARM1 inhibitory activity)
# In short: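 NMN-activated NAD+ hydrolysis: compound pre-incubated 15 min at room temperature with 2 nM SARM1 (50-724) at 1% DMSO in DPBS; 100 μM NAD+ plus 200 μM NMN added and reacted 1 h at RT. Acetonitrile quench, LC-MS/MS readout.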
row,IC50 [nM],Structure (SMILES)
1,≤ 100,"O=C(c1nc2cc(C(F)(F)F)ccc2[nH]1)N(c1cccc(Cl)c1Cl)C1CC(O)C1 (stereo not shown) [Compound 193, N-(2,3-dichlorophenyl)-N-(3-hydroxycyclobutyl)-5-(trifluoromethyl)-1H-benzo[d]imidazole-2-carboxamide]"
2,≤ 100,"O=C(c1nc2cc(C(F)(F)F)ccc2[nH]1)N(c1cccc(F)c1Cl)C1CCS(=O)(=O)C1 (racemic) [Compound 228, N-(2-chloro-3-fluorophenyl)-N-(1,1-dioxidotetrahydrothiophen-3-yl)-5-(trifluoromethyl)-1H-benzo[d]imidazole-2-carboxamide]"
3,≤ 100,"O=C(c1nc2cc(C(F)(F)F)ccc2[nH]1)N(CC(F)(F)CO)c1cc(F)cc(F)c1Cl [Compound 218, N-(2-chloro-3,5-difluorophenyl)-N-(2,2-difluoro-3-hydroxypropyl)-5-(trifluoromethyl)-1H-benzo[d]imidazole-2-carboxamide]"
4,≥ 1000,"Cc1ccc2c(CO)c(C(=O)N(C)C3CCCC3)[nH]c2c1 [Compound 17, N-cyclopentyl-3-(hydroxymethyl)-N,6-dimethyl-1H-indole-2-carboxamide]"
5,101 to 500,"Cc1ccc2[nH]c(C(=O)N(C)C3CCCC3)nc2c1 [Compound 46, N-cyclopentyl-N,5-dimethyl-1H-benzo[d]imidazole-2-carboxamide]"
6,≥ 1000,"Cc1ccc2[nH]c(C(=O)N(C)C3CCCC3)c(CNc3ncc[nH]3)c2c1 [Compound 77, 3-(((1H-imidazol-2-yl)amino)methyl)-N-cyclopentyl-N,5-dimethyl-1H-indole-2-carboxamide]"
7,≥ 1000,"CN(C(=O)c1[nH]c2cc(Cl)ccc2c1CO)C1CCCC1 [Compound 41, 6-chloro-N-cyclopentyl-3-(hydroxymethyl)-N-methyl-1H-indole-2-carboxamide]"
8,≤ 100,CC(O)CN(C(=O)c1nc2cc(C(F)(F)F)ccc2[nH]1)c1cccc(Cl)c1Cl (stereo not shown) [Compound 170]
9,≤ 100,"Cc1ccc2[nH]c(C(=O)N(CCO)c3cccc(Cl)c3Cl)c(C#N)c2c1 [Compound 71, 3-cyano-N-(2,3-dichlorophenyl)-N-(2-hydroxyethyl)-5-methyl-1H-indole-2-carboxamide]"
10,≥ 1000,"Cc1ccc2c(c1)c(CO)c(C(=O)N(C)C1C(C)CCC1C)n2C (stereo not shown) [Compound 18, N-(2,5-dimethylcyclopentyl)-3-(hydroxymethyl)-N,1,5-trimethyl-1H-indole-2-carboxamide]"
11,101 to 500,O=C(c1nc2cc(CO)ccc2[nH]1)N(CCO)c1cccc(Cl)c1Cl [Compound 171]
12,≥ 1000,"CN(C(=O)c1[nH]c2cc(Cl)cc(Cl)c2c1CO)C1CCCC1 [Compound 31, 4,6-dichloro-N-cyclopentyl-3-(hydroxymethyl)-N-methyl-1H-indole-2-carboxamide]"
13,501 to 1000,Cc1c(Cl)cncc1N(CCO)C(=O)c1nc2c(Cl)c(Cl)ccc2[nH]1 [Compound 175]
14,≥ 1000,Cc1c(-c2ccn[nH]2)ccc2[nH]c(C(=O)N(CC3COC3)c3cccc(Cl)c3Cl)nc12 [Compound 142]
15,101 to 500,Cc1c(F)cncc1N(CCO)C(=O)c1nc2cc(C(F)(F)F)ccc2[nH]1 [compound 169]
16,101 to 500,"O=C(c1nc2cc(C(F)(F)F)ccc2[nH]1)N(CCC1CNC1)c1cccc(Cl)c1Cl [Compound 134, N-(2-(azetidin-3-yl)ethyl)-N-(2,3-dichlorophenyl)-5-(trifluoromethyl)-1H-benzo[d]imidazole-2-carboxamide]"

row,IC50 [nM],Structure (SMILES)
1,101 to 500,"Cc1nsc(N(CC2(F)COC2)C(=O)c2nc3cc(C(F)(F)F)ccc3[nH]2)c1Cl [Compound 188, N-(4-chloro-3-methylisothiazol-5-yl)-N-((3-fluorooxetan-3-yl)methyl)-5-(trifluoromethyl)-1H-benzo[d]imidazole-2-carboxamide]"
2,≤ 100,"O=C(c1nc2cc(C(F)(F)F)ccc2[nH]1)N(CCO)c1cnccc1C(F)(F)F [Compound 20, N-(2-hydroxyethyl)-5-(trifluoromethyl)-N-(4-(trifluoromethyl)pyridin-3-yl)-1H-benzo[d]imidazole-2-carboxamide]"
3,≥ 1000,"CCc1cccc2[nH]c(C(=O)N(C)C3CCCC3)nc12 [Compound 94, N-cyclopentyl-4-ethyl-N-methyl-1H-benzo[d]imidazole-2-carboxamide]"
4,≤ 100,"O=C(c1nc2cc(C(F)(F)F)ccc2[nH]1)N(CC(F)(F)C(=O)O)c1cccc(Cl)c1Cl [Compound 106, 3-(N-(2,3-dichlorophenyl)-6-(trifluoromethyl)-1H-benzo[d]imidazole-2-carboxamido)-2,2-difluoropropanoic acid]"
5,≥ 1000,"Cc1ccc2[nH]c(C(=O)N(CCN(C)C)C3CCCC3)nc2c1 [Compound 64, N-cyclopentyl-N-(2-(dimethylamino)ethyl)-5-methyl-1H-benzo[d]imidazole-2-carboxamide]"
6,501 to 1000,"Cc1cccc(N(CCO)C(=O)c2nc3cc(C(F)(F)F)ccc3[nH]2)c1F [Compound 172, N-(2-fluoro-3-methylphenyl)-N-(2-hydroxyethyl)-5-(trifluoromethyl)-1H-benzo[d]imidazole-2-carboxamide]"
7,101 to 500,"CN(C(=O)c1nc2cc(Br)ccc2[nH]1)C1CCCC1 [Compound 104, 5-bromo-N-cyclopentyl-N-methyl-1H-benzo[d]imidazole-2-carboxamide]"
8,≤ 100,"Cc1c(Cl)cccc1N(CCO)C(=O)c1nc2cc(C(F)(F)F)ccc2[nH]1 [Compound 137, N-(3-chloro-2-methylphenyl)-N-(2-hydroxyethyl)-5-(trifluoromethyl)-1H-benzo[d]imidazole-2-carboxamide]"
9,≤ 100,"O=C(c1nc2cc(C(F)(F)F)ccc2[nH]1)N(CCO)c1nccc(Cl)c1Cl [Compound 100, N-(3,4-dichloropyridin-2-yl)-N-(2-hydroxyethyl)-5-(trifluoromethyl)-1H-benzo[d]imidazole-2-carboxamide]"
10,≥ 1000,"Cc1ccc2[nH]c(C(=O)N(C)c3cccnc3)c(CO)c2c1 [Compound 22, 3-(hydroxymethyl)-N,5-dimethyl-N-(pyridin-3-yl)-1H-indole-2-carboxamide]"
11,101 to 500,O=C(c1nc2cc(C(F)(F)F)c(Cl)cc2[nH]1)N(CCO)c1cccc(Cl)c1Cl [Compound 163]
12,≤ 100,"CC(C)(C)c1ccc2[nH]c(C(=O)N(CC3(F)COC3)c3[nH]c(=O)ccc3Cl)nc2c1 [Compound 221, 5-(tert-butyl)-N-(3-chloro-6-oxo-1,6-dihydropyridin-2-yl)-N-((3-fluorooxetan-3-yl)methyl)-1H-benzo[d]imidazole-2-carboxamide]"
13,101 to 500,"CNCCN(C(=O)c1nc2cc(C(F)(F)F)ccc2[nH]1)c1cccc(Cl)c1Cl [Compound 121, N-(2,3-dichlorophenyl)-N-(2-(methylamino)ethyl)-5-(trifluoromethyl)-1H-benzo[d]imidazole-2-carboxamide]"
14,≤ 100,"CC1(c2ccc3[nH]c(C(=O)N(CC(F)(F)CO)c4cccc(F)c4Cl)nc3c2)COC1 [Compound 223, N-(2-chloro-3-fluorophenyl)-N-(2,2-difluoro-3-hydroxypropyl)-5-(3-methyloxetan-3-yl)-1H-benzo[d]imidazole-2-carboxamide]"
15,≥ 1000,"Cc1ccc2[nH]c(C(=O)N(C)c3ccccn3)c(CO)c2c1 [Compound 4, 3-(hydroxymethyl)-N,5-dimethyl-N-(pyridin-2-yl)-1H-indole-2-carboxamide]"
